According to patent US9695240B2, “Anthracycline derivative conjugates, process for their preparation and their use as antitumor compounds” (Genentech, Inc., priority 2008, dated 2017):

Legend:
[1] = Stability of the conjugate in ammonium acetate buffer, HPLC; type: physicochemical; settings: for % release of Compound IIA from the conjugate: 37° C., after four hours incubation
Method: Stability of the conjugates was studied using HPLC analysis. The conjugate was incubated in ammonium acetate buffers at pH 4 and 5.2 at 37° C. Each solution was then taken periodically and applied to an HPLC column using a method reported above. The amount of material released from the conjugate was determined and expressed as percent of released material.
To 0.5 mg of conjugate, ammonium acetate 5 mM pH=5.2 buffer solution (200 mL) was added. The solution was warmed at 37° C. and sample was taken periodically and analyzed by HPLC (method 2). Results are expressed as % of released material (8S,10S)-6,8,11-trihydroxy-8-(hydroxyacetyl)-1-methoxy-10-{[(1S,3R,4aS,9S,9aR,10aS)-9-methoxy-1-methyloctahydro-1H-pyrano[4′,3′:4,5][1,3]oxazolo[2,3-c][1,4]oxazin-3-yl]oxy}-7,8,9,10-tetrahydrotetracene-5,12-dione (Compound IIA) from the conjugate. […]

[2] = tested on: BT-474 cells; assay: CellTiter-Glo in vitro cell proliferation assay, BT-474; type: cell-based; settings: continuous exposure, 3 days
Excerpt: (§1) Cell-based in vitro assays may be used to measure viability, i.e. proliferation (IC50), cytotoxicity (EC50), and induction of apoptosis (caspase activation) of the ADC. The CellTiter-Glo® Luminescent Cell Viability Assay is a commercially available (Promega Corp., Madison, Wis.), homogeneous assay method based on the recombinant expression of Coleoptera luciferase (U.S. Pat. Nos. 5,583,024; 5,674,713; 5,700,670). This cell proliferation assay determines the number of viable cells in culture based on quantitation of the ATP present, an indicator of metabolically active cells (Crouch et al (1993) J. Immunol. Meth. 160:81-88; U.S. Pat. No. 6,602,677). The CellTiter-Glo® Assay is conducted in 96 well format, making it amenable to automated high-throughput screening (HTS) (Cree et al (1995) AntiCancer Drugs 6:398-404). The homogeneous assay procedure involves adding the single reagent (CellTiter-Glo® Reagent) directly to cells cultured in serum-supplemented medium. Cell washing, removal of medium and multiple pipetting steps are not required. The system detects as few as 15 cells/well in a 384-well format in 10 minutes after adding reagent and mixing.
(§2) The in vitro potency of antibody-drug conjugates was measured by a cell proliferation assay (FIGS. 8-29). The CellTiter-Glo® Luminescent Cell Viability Assay is a commercially available (Promega Corp., Madison, Wis.), homogeneous assay method based on the recombinant expression of Coleoptera luciferase (U.S. Pat. Nos. 5,583,024; 5674,713; 5,700,670). This assay determines the number of viable cells in culture based on quantitation of the ATP present, an indicator of metabolically active cells (Crouch et al (1993) J. Immunol. Meth. 160:81-88; U.S. Pat. No. 6,602,677). The CellTiter-Glo® Assay was conducted in 96 well format, making it amenable to automated high-throughput screening (HTS) (Cree et al (1995) AntiCancer Drugs 6:398-404). The homogeneous assay procedure involves adding the single reagent (CellTiter-Glo® Reagent) directly to cells cultured in serum-supplemented medium.
(§3) The homogeneous “add-mix-measure” format results in cell lysis and generation of a luminescent signal proportional to the amount of ATP present. The substrate, Beetle Luciferin, is oxidatively decarboxylated by recombinant firefly luciferase with concomitant conversion of ATP to AMP and generation of photons. Viable cells are reflected in relative luminescence units (RLU). Data can be recorded by luminometer or CCD camera imaging device. The luminescence output is presented as RLU, measured over time. Alternatively, photons from luminescence can be counted in a scintillation counter in the presence of a scintillant. The light units can be represented then as CPS—counts per second.
(§4) Efficacy of ADC were measured by a cell viability assay employing the following protocol, adapted from CellTiter Glo Luminescent Cell Viability Assay, Promega Corp. Technical Bulletin TB288 and Mendoza et al (2002) Cancer Res. 62:5485-5488: • 1. An aliquot of 50 μl of cell culture containing about 1000 or more cells, including: HER2-expressing and CD22-expressing cells, in medium was deposited in each well of a 96-well, opaque-walled, clear bottom plate. • 2. ADC (50 μl) was added to triplicate experimental wells to final concentration of 10 μg/mL, with “no ADC” control wells receiving medium alone, and incubated for 3 or more days. • 3. The plates were equilibrated to room temperature for approximately 30 minutes. • 4. CellTiter-Glo Reagent (100 μl) was added. • 5. The contents were mixed for 2 minutes on an orbital shaker to induce cell lysis. • 6. The plate was incubated at room temperature for 10 minutes to stabilize the luminescence signal. • 7. Luminescence was recorded and reported in graphs as RLU=relative luminescence units.

[3] = tested on: SK-BR-3 cells; assay: CellTiter-Glo in vitro cell proliferation assay, SK-BR-3; type: cell-based; settings: continuous exposure, 3 days
Excerpt: as §1, §2, §3, §4

[4] = tested on: doxorubicin-resistant (DoxRes) HER2 cells; assay: CellTiter-Glo in vitro cell proliferation assay, doxorubicin-resistant HER2; type: cell-based; settings: continuous exposure, 3 days
Excerpt: as §1, §2, §3, §4

[5] = tested on: MCF7 cells; assay: CellTiter-Glo in vitro cell proliferation assay, MCF7; type: cell-based, human; settings: continuous exposure, 3 days
Excerpt: as §1, §2, §3, §4

[6] = tested on: tumor models; settings: cited from earlier work

Row | Structure (SMILES) | stability at pH 5.2, release of compound of formula (IIA) over time, in words ([1]; pH 5.2, FIG. 1) | % release of Compound IIA from the conjugate ([1]; pH 4.2 buffer solution) | % release of Compound IIA from the conjugate ([1]; pH 5.2 buffer solution) | BT-474 in vitro cell viability at 3 days, anti-proliferative activity in words [2] | SK-BR-3 in vitro cell viability at 3 days, anti-proliferative activity in words [3] | DoxRes HER2 in vitro cell viability at 3 days, anti-proliferative activity in words [4] | MCF7 in vitro cell viability at 3 days, anti-proliferative activity in words [5] | antitumor activity in in vivo tumor models, in words [6]
1 | CNC(=O)COC1(OCC(=O)[C@]2(O)Cc3c(O)c4c(c(O)c3[C@@H](O[C@H]3C[C@H]5[C@H](O[C@@H]6[C@@H](OC)OCCN65)[C@H](C)O3)C2)C(=O)c2c(OC)cccc2C4=O)CCCCC1 [Compound 2, N-methyl-2-[(1-{2-oxo-2-[(2S,4S)-2,5,12-trihydroxy-7-methoxy-4-{[(1S,3R,4aS,9S,9aR,10aS)-9-methoxy-1-methyloctahydro-1H-pyrano[4′,3′:4,5][1,3]oxazolo[2,3-c][1,4]oxazin-3-yl]oxy}-6,11-dioxo-1,2,3,4,6,11-hexahydrotetracen-2-yl]ethoxy}cyclohexyl)oxy]acetamide] | increased release of the free compound of the formula (IIA) |  |  |  |  |  |  | 
2 | COc1cccc2c1C(=O)c1c(O)c3c(c(O)c1C2=O)C[C@@](O)(/C(CO)=N/NC(=O)CCSSC[C@H](NC(C)=O)C(=O)O)C[C@@H]3O[C@H]1C[C@H]2[C@H](O[C@@H]3[C@@H](OC)OCCN32)[C@H](C)O1 [Compound 12, N-acetyl-3-({3-[(2E)-2-{2-hydroxy-1-[(2S,4S)-2,5,12-trihydroxy-7-methoxy-4-{[(1S,3R,4aS,9S,9aR,10aS)-9-methoxy-1-methyloctahydro-1H-pyrano[4′,3′:4,5][1,3]oxazolo[2,3-c][1,4]oxazin-3-yl]oxy}-6,11-dioxo-1,2,3,4,6,11-hexahydrotetracen-2-yl]ethylidene}hydrazinyl]-3-oxopropyl}disulfanyl)-L-alanine] |  | 100% | 90% |  |  |  |  | 
3 | COc1cccc2c1C(=O)c1c(O)c3c(c(O)c1C2=O)C[C@@](O)(C(=O)COC1CCCC(COCC(=O)ON2C(=O)CCC2=O)O1)C[C@@H]3O[C@H]1C[C@H]2[C@H](O[C@@H]3[C@@H](OC)OCCN32)[C@H](C)O1 (stereo partly drawn) [Compound 50, 1-({[(6-{2-oxo-2-[(2S,4S)-2,5,12-trihydroxy-7-methoxy-4-{[(1S,3R,4aS,9S,9aR,10aS)-9-methoxy-1-methyloctahydro-1H-pyrano[4′,3′:4,5][1,3]oxazolo[2,3-c][1,4]oxazin-3-yl]oxy}-6,11-dioxo-1,2,3,4,6,11-hexahydrotetracen-2-yl]ethoxy}tetrahydro-2H-pyran-2-yl)methoxy]acetyl}oxy)pyrrolidine-2,5-dione] |  |  |  | inactive | minimal anti-proliferative activity | minimal anti-proliferative activity | inactive | 
4 | COc1cccc2c1C(=O)c1c(O)c3c(c(O)c1C2=O)C[C@@](O)(C(=O)COC1CCCC(COCC(=O)NCCN2C(=O)C=CC2=O)O1)C[C@@H]3O[C@H]1C[C@H]2[C@H](O[C@@H]3[C@@H](OC)OCCN32)[C@H](C)O1 (some centres unmarked) [Compound 51] |  |  |  | inactive | minimal anti-proliferative activity | minimal anti-proliferative activity | inactive | 
5 | COc1cccc2c1C(=O)c1c(O)c3c(c(O)c1C2=O)C[C@@](O)(/C(CO)=N/NC(=O)CCCCCN1C(=O)C=CC1=O)C[C@@H]3O[C@H]1C[C@H]2[C@H](O[C@@H]3[C@@H](OC)OCCN32)[C@H](C)O1 [Compound 52, 6-(2,5-dioxo-2,5-dihydro-1H-pyrrol-1-yl)-N′-{(1E)-2-hydroxy-1-[(2S,4S)-2,5,12-trihydroxy-7-methoxy-4-{[(1S,3R,4aS,9S,9aR,10aS)-9-methoxy-1-methyloctahydro-1H-pyrano[4′,3′:4,5][1,3]oxazolo[2,3-c][1,4]oxazin-3-yl]oxy}-6,11-dioxo-1,2,3,4,6,11-hexahydrotetracen-2-yl]ethylidene}hexanehydrazide] |  |  |  | minimal anti-proliferative activity | less potent than free Ant | less potent than free Ant | minial anti-proliferative activity | 
6 | COc1cccc2c1C(=O)c1c(O)c3c(c(O)c1C2=O)C[C@@](O)(/C(CO)=N/NC(=O)CCSSc1ccccn1)C[C@@H]3O[C@H]1C[C@H]2[C@H](O[C@@H]3[C@@H](OC)OCCN32)[C@H](C)O1 [Compound 53, N′-{(1E)-2-hydroxy-1-[(2S,4S)-2,5,12-trihydroxy-7-methoxy-4-{[(1S,3R,4aS,9S,9aR,10aS)-9-methoxy-1-methyloctahydro-1H-pyrano[4′,3′:4,5][1,3]oxazolo[2,3-c][1,4]oxazin-3-yl]oxy}-6,11-dioxo-1,2,3,4,6,11-hexahydrotetracen-2-yl]ethylidene}-3-(pyridin-2-yldisulfanyl)propanehydrazide] |  |  |  | minimal anti-proliferative activity | less potent than free Ant | less potent than free Ant | minial anti-proliferative activity | 
7 | COc1cccc2c1C(=O)c1c(O)c3c(c(O)c1C2=O)C[C@@](O)(C(=O)CO)C[C@@H]3O[C@H]1C[C@H](N2CCO[C@H](OC)C2)[C@H](O)[C@H](C)O1 [nemorubicin, (8S,10S)-6,8,11-trihydroxy-10-((2R,4S,5S,6S)-5-hydroxy-4-((S)-2-methoxymorpholino)-6-methyltetrahydro-2H-pyran-2-yloxy)-8-(2-hydroxyacetyl)-1-methoxy-7,8,9,10-tetrahydrotetracene-5,12-dione] |  |  |  |  |  |  |  | promising antitumor activity on experimental murine tumors
